Experimental findings from patent US8415378B2, “Isoxazol-3(2H)-one analogs as therapeutic agents” (AstraZeneca AB, priority 2009, dated 2013) are described below.

T1 sequence (P00747 20-810 limits assumed): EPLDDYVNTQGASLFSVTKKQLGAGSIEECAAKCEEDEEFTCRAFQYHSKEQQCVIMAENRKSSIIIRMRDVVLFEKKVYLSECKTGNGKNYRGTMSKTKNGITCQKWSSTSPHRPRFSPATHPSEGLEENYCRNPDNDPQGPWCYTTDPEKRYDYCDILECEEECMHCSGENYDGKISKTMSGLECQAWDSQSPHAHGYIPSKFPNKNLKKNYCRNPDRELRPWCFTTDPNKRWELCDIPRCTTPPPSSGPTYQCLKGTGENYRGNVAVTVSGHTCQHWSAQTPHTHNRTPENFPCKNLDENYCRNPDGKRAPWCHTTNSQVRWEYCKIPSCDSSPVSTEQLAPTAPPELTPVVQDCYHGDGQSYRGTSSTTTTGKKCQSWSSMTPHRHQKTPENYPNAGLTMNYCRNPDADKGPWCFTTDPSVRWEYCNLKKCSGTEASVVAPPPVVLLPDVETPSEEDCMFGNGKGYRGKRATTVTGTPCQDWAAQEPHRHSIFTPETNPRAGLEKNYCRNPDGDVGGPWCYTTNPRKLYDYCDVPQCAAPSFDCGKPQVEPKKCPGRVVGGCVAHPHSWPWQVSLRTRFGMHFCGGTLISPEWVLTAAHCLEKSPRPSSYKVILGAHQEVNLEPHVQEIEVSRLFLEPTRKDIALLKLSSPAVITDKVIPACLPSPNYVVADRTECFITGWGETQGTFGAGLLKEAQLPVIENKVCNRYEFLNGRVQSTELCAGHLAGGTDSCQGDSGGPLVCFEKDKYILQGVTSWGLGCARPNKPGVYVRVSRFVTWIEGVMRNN

This test has as its target T1, human Glu-plasminogen (Homo sapiens, UniProt P00747).
T1 construct: human Glu-plasminogen; purchased Chromogenix, Italy
Kind of test: Clot-lysis buffer assay. It counts as biochemical. The procedure:
The assay method used for evaluating biological activity of the compounds according to the invention was Clot-lysis buffer assay.
Tested substance were added to the reaction mixture in 10% DMSO. Reaction was started by the addition of thrombin.
Measured according to the Clot-lysis buffer assay described above.
In the case of `O=c1cc([C@@H]2CCN[C@@H](Cc3cccc(C(F)(F)F)c3)C2)o[nH]1` (relative stereo) [Example 109, 5-(Trans-2-(3-(trifluoromethyl)benzyl)piperidin-4-yl)isoxazol-3(2H)-one], half-maximal inhibition (IC50) required 5 µM.
With `CC(C)(C)c1ccc([C@H]2C[C@H](c3cc(=O)[nH]o3)CCN2)cc1` (relative stereo) [Example 37, 5-(Trans-2-(4-tert-butylphenyl)piperidin-4-yl)isoxazol-3(2H)-one] the figure was 228 µM; with `O=c1cc([C@@H]2CCN[C@@H](c3cc(F)c(C(F)(F)F)c(F)c3)C2)o[nH]1` (relative stereo) [Example 71, 5-(Trans-2-(3,5-difluoro-4-(trifluoromethyl)phenyl)piperidin-4-yl)isoxazol-3(2H)-one], 11.6 µM; with `O=c1cc([C@H]2CCN[C@@H](Cc3ccc(C(F)(F)F)cc3)C2)o[nH]1` [Example 104, 5-((2R,4S)-2-(4-(Trifluoromethyl)benzyl)piperidin-4-yl)isoxazol-3(2H)-one], 1.5 µM.
Under `O=c1cc([C@@H]2CCN[C@H](c3ccc(Cl)cc3)C2)o[nH]1` [Example 28, 5-((2S,4R)-2-(4-Chlorophenyl)piperidin-4-yl)isoxazol-3(2H)-one] stands 283 µM.
Regarding `O=c1cc([C@H]2CCN[C@@H](Cc3cc(F)ccc3F)C2)o[nH]1` [Example 124, 5-((2R,4S)-2-(2,5-Difluorobenzyl)piperidin-4-yl)isoxazol-3(2H)-one], the IC50 was 1.2 µM.
With `O=c1cc([C@@H]2CCN[C@@H](c3ccc(Cl)cc3F)C2)o[nH]1` (relative stereo) [Example 46, 5-(Trans-2-(4-chloro-2-fluorophenyl)piperidin-4-yl)isoxazol-3(2H)-one] the figure was 90.7 µM; with `O=c1cc([C@@H]2CCN[C@H](c3ccc(Cl)cc3Cl)C2)o[nH]1` [Example 52, 5-((2S,4R)-2-(2,4-Dichlorophenyl)piperidin-4-yl)isoxazol-3(2H)-one], 1940 µM.
Under `O=c1cc([C@@H]2CCN[C@@H](Cc3cc(F)ccc3F)C2)o[nH]1` (relative stereo) [Example 126, 5-(Trans-2-(2,5-difluorobenzyl)piperidin-4-yl)isoxazol-3(2H)-one] stands 3.6 µM; under `CS(=O)(=O)c1ccc(C[C@@H]2C[C@H](c3cc(=O)[nH]o3)CCN2)cc1` [Example 118, 5-((2S,4R)-2-(4-(Methylsulfonyl)benzyl)piperidin-4-yl)isoxazol-3(2H)-one], 225 µM; under `O=c1cc([C@@H]2CCN[C@@H](c3ccc(F)cc3)C2)o[nH]1` (relative stereo) [Example 26, 5-(Trans-2-(4-fluorophenyl)piperidin-4-yl)isoxazol-3(2H)-one], 73.8 µM.
With `O=c1cc([C@H]2CCN[C@H](Cc3cc(F)cc(F)c3)C2)o[nH]1` [Example 132, 5-((2S,4S)-2-(3,5-Difluorobenzyl)piperidin-4-yl)isoxazol-3(2H)-one] the figure was 2.2 µM; with `O=c1cc([C@@H]2CCN[C@@H](Cc3ccc(OC(F)(F)F)cc3)C2)o[nH]1` (relative stereo) [Example 114, 5-(Trans-2-(4-(trifluoromethoxy)benzyl)piperidin-4-yl)isoxazol-3(2H)-one], 6.5 µM; with `O=c1cc([C@H]2CCN[C@@H](Cc3ccc(F)cc3F)C2)o[nH]1` [Example 134, 5-((2R,4S)-2-(2,4-Difluorobenzyl)piperidin-4-yl)isoxazol-3(2H)-one], 0.85 µM.
`O=c1cc([C@H]2CCN[C@@H](c3ccc(C(F)(F)F)cc3F)C2)o[nH]1` [Example 73, 5-((2R,4S)-2-(2-Fluoro-4-(trifluoromethyl)phenyl)piperidin-4-yl)isoxazol-3(2H)-one] returned an IC50 of 1.54 µM.
`O=c1cc([C@H]2CCN[C@@H](Cc3cc(F)cc(F)c3)C2)o[nH]1` [Example 130, 5-((2R,4S)-2-(3,5-Difluorobenzyl)piperidin-4-yl)isoxazol-3(2H)-one]: half-maximal inhibition (IC50) was put at 1.1 µM.
Under `O=c1cc([C@@H]2CCN[C@@H](c3cc(Cl)cc(Cl)c3)C2)o[nH]1` (relative stereo) [Example 57, 5-(Trans-2-(3,5-dichlorophenyl)piperidin-4-yl)isoxazol-3(2H)-one] stands 40 µM; under `O=c1cc([C@@H]2CCN[C@H](Cc3ccc(F)cc3F)C2)o[nH]1` [Example 135, 5-((2S,4R)-2-(2,4-Difluorobenzyl)piperidin-4-yl)isoxazol-3(2H)-one], 69.1 µM.
Under `O=c1cc([C@H]2CCN[C@@H](c3ccc(Cl)cc3Cl)C2)o[nH]1` [Example 51, 5-((2R,4S)-2-(2,4-Dichlorophenyl)piperidin-4-yl)isoxazol-3(2H)-one] stands 0.9 µM.
With `CC(C)(C)c1ccc([C@@H]2C[C@H](c3cc(=O)[nH]o3)CCN2)s1` [Example 43, 5-((2S,4R)-2-(5-tert-Butylthiophen-2-yl)piperidin-4-yl)isoxazol-3(2H)-one] the figure was 77.5 µM; with `O=c1cc([C@@H]2CCN[C@H](COC3CCCCC3)C2)o[nH]1` [Example 85, 5-((2S,4R)-2-(Cyclohexyloxymethyl)piperidin-4-yl)isoxazol-3(2H)-one], 173 µM.
Compound `CC(C)(C)c1cc(C[C@H]2C[C@H](c3cc(=O)[nH]o3)CCN2)cc(C(C)(C)C)c1` (relative stereo) [Example 148, 5-(Trans-2-(3,5-di-tert-butylbenzyl)piperidin-4-yl)isoxazol-3(2H)-one] registered an IC50 of 2.7 µM.
With `O=c1cc([C@H]2CCN[C@@H](c3ccc(F)cc3)C2)o[nH]1` [Example 25, 5-((2R,4S)-2-(4-Fluorophenyl)piperidin-4-yl)isoxazol-3(2H)-one] the figure was 2.5 µM.
In the case of `O=c1cc([C@@H]2CCN[C@H](CC3CCC(F)(F)CC3)C2)o[nH]1` [Example 90, 5-((2R,4R)-2-((4,4-Difluorocyclohexyl)methyl)piperidin-4-yl)isoxazol-3(2H)-one], the midpoint of inhibition, the IC50, lay at 102 µM.
`O=c1cc([C@H]2CCN[C@@H](Cc3c(F)cccc3F)C2)o[nH]1` [Example 127, 5-((2R,4S)-2-(2,6-Difluorobenzyl)piperidin-4-yl)isoxazol-3(2H)-one] yielded a half-inhibitory concentration (IC50) of 1.4 µM.
`O=c1cc([C@@H]2CCN[C@H](Cc3cccc(C(F)(F)F)c3)C2)o[nH]1` [Example 108, 5-((2S,4R)-2-(3-(Trifluoromethyl)benzyl)piperidin-4-yl)isoxazol-3(2H)-one] yielded an IC50 of 70.5 µM.
`O=c1cc([C@H]2CCN[C@@H](Cc3ccc(Cl)cc3)C2)o[nH]1` [Example 115, 5-((2R,4S)-2-(4-Chlorobenzyl)piperidin-4-yl)isoxazol-3(2H)-one] gave an IC50 of 0.8 µM.
With `Cc1cc([C@@H]2C[C@H](c3cc(=O)[nH]o3)CCN2)ccc1C(F)(F)F` [Example 68, 5-((2S,4R)-2-(3-Methyl-4-(trifluoromethyl)phenyl)piperidin-4-yl)isoxazol-3(2H)-one] the figure was 81.1 µM; with `O=c1cc([C@H]2CCN[C@@H](c3ccc(OC(F)(F)F)cc3F)C2)o[nH]1` [Example 58, 5-((2R,4S)-2-(2-Fluoro-4-(trifluoromethoxy)phenyl)piperidin-4-yl)isoxazol-3(2H)-one], 2.1 µM; with `O=c1cc([C@@H]2CCN[C@H](Cc3cc(F)cc(F)c3)C2)o[nH]1` [Example 131, 5-((2S,4R)-2-(3,5-Difluorobenzyl)piperidin-4-yl)isoxazol-3(2H)-one], 128 µM.
With `O=c1cc([C@@H]2CCN[C@H](Cc3c(F)cccc3F)C2)o[nH]1` [Example 128, 5-((2S,4R)-2-(2,6-Difluorobenzyl)piperidin-4-yl)isoxazol-3(2H)-one] the figure was 31.4 µM.
Turning to `CC(C)(C)c1cc(C[C@H]2C[C@@H](c3cc(=O)[nH]o3)CCN2)cc(C(C)(C)C)c1` [Example 146, 5-((2R,4S)-2-(3,5-Di-tert-butylbenzyl)piperidin-4-yl)isoxazol-3(2H)-one], half-maximal inhibition (IC50) was put at 6.6 µM.
`O=c1cc([C@@H]2CCN[C@@H](c3ccc(Cl)cc3Cl)C2)o[nH]1` [Example 54, 5-((2R,4R)-2-(2,4-Dichlorophenyl)piperidin-4-yl)isoxazol-3(2H)-one] returned an IC50 of 372 µM.
Under `O=c1cc([C@@H]2CCN[C@H](Cc3ccc(C(F)(F)F)c(F)c3)C2)o[nH]1` [Example 141, 5-((2S,4R)-2-(3-Fluoro-4-(trifluoromethyl)benzyl)piperidin-4-yl)isoxazol-3(2H)-one] stands 69.5 µM; under `O=c1cc([C@@H]2CCN[C@@H](Cc3c(F)cccc3F)C2)o[nH]1` (relative stereo) [Example 129, 5-(Trans-2-(2,6-difluorobenzyl)piperidin-4-yl)isoxazol-3(2H)-one], 10.2 µM; under `O=c1cc([C@H]2CCN[C@@H](c3cccc(C(F)(F)F)c3)C2)o[nH]1` [Example 30, 5-((2R,4S)-2-(3-(Trifluoromethyl)phenyl)piperidin-4-yl)isoxazol-3(2H)-one], 0.7 µM.
The compound `O=c1cc([C@H]2CCN[C@@H](c3cc(F)c(F)cc3F)C2)o[nH]1` [Example 63, 5-((2R,4S)-2-(2,4,5-Trifluorophenyl)piperidin-4-yl)isoxazol-3(2H)-one] gave an IC50 of 3.22 µM.
With `O=c1cc([C@H]2CCN[C@@H](Cc3ccccc3C(F)(F)F)C2)o[nH]1` [Example 110, 5-((2R,4S)-2-(2-(Trifluoromethyl)benzyl)piperidin-4-yl)isoxazol-3(2H)-one] the figure was 1.2 µM.
Under `O=c1cc([C@@H]2CCN[C@@H](Cc3ccc(F)cc3F)C2)o[nH]1` (relative stereo) [Example 136, 5-(Trans-2-(2,4-difluorobenzyl)piperidin-4-yl)isoxazol-3(2H)-one] stands 4.94 µM; under `CC(C)(C)c1ccc(C[C@@H]2C[C@@H](c3cc(=O)[nH]o3)CCN2)cc1` [Example 11, 5-((2S,4S)-2-(4-tert-Butylbenzyl)piperidin-4-yl)isoxazol-3(2H)-one], 4.3 µM.

What is called IC50 is the point on the concentration scale where inhibition reaches its midpoint. A high value points to lower potency.
